Reference: patent publication US20250339443A1, “METHOD FOR TREATING OR PREVENTING CALCIUM RELEASE-ACTIVATED CALCIUM CHANNEL OR DISCOIDIN DOMAIN RECEPTOR 2 RELATED DISORDERS OR CONDITIONS” (LumiSTAR Biotechnology, Inc., priority 2023, published 2025)

Assays:
Assay type in all cases: cell-based
[1] = system: human cardiac fibroblast (HCF); assay: TGF-β1-induced fibronectin deposition and α-SMA expression in HCF (immunofluorescence); conditions: for TGF-β1-increased cell spreading area: 10 μM co-treatment; for expression of fibronectin and α-SMA induced by TGF-β1: 10 μM, immunofluorescence
Experimental: (§1) Cells were co-treated with various compounds (10 μM) and TGF-β1 for 24 hours. Following this, cell lysates were harvested, and the protein expression was assessed by Western blot analysis. FIG. 3D depicts the examination of TGF-β1-induced fibronectin deposition and α-SMA expression in HCF treated with 10 μM of DMSO, BTP2, WRG-28, or Av through immunofluorescence staining. The images were captured using a confocal microscope, the Olympus FV-1000. FIG. 3E, FIG. 3F, and FIG. 3G illustrate the assessment of CRAC channel activity in HCF, MRC5, and rat HSC-T6. These cells were pretreated with 10 μM of BTP2, WRG-28, or Av for 45 min. The evaluation included measuring the second peak of each calcium wave and the rate of entry. Each bar within the figure represents the mean value derived from 77 to 91 cells for HCF, 31 to 49 cells for MRC5, and 43 to 94 cells for HSC-T6. In all the graphs, *, **, and *** denote p-values of <0.05, 0.01, and 0.001, respectively.
In TGF-β1-induced cell differentiation, cells were seeded on a type I collagen-coated tissue culture dish and then treated with different compounds for 4 hours. Cells were then treated with 10 ng/ml TGF-β1 for another 24 hours before protein analysis or immunocytochemistry study.
Cells cultured on chamber slides were fixed with 4% paraformaldehyde for 10 minutes followed by a permeabilization step by incubating cells in 0.5% Triton X-100 in PBS for 5 minutes. Cells were then incubated in SuperBlock blocking buffer (Thermo Scientific) for 1 h at room temperature. The protein expression was detected by incubating cells with specific primary antibodies followed by incubating cells with secondary antibodies against mouse or rabbit IgG conjugated with Alexa-488 or -594 nm (Invitrogen), respectively. Hoechst 33258 (10 μg/ml) is used for nuclei staining. All images were visualized and taken by confocal microscopy (Olympus, FV-1000).
To assess the overall effects of WRG-28 and Av on TGF-1-induced fibroblast activation, human cardiac fibroblasts (HCF), human pulmonary fibroblasts (MRC5), and rat hepatic stellate cells (HSC-T6) were employed. The upregulation of α-SMA induced by TGF-β1 treatment was observed, but this effect was suppressed by the co-treatment with various compounds, including BTP2, WRG-28, and Av, across all tested cell (FIG. 3A, FIG. 3B, and FIG. 3C). The expression of fibronectin and α-SMA induced by TGF-β1 in HCF was examined, and once again, the treatment with BTP2, WRG-28, or Av suppressed this effect (FIG. 3D).

[2] = molecular target: T1, Stim1 or Orai1 puncta (Homo sapiens, UniProt Q96D31); assay: Orai1 and Stim1 puncta in HEK293T cells overexpressing CFP-Orai1/Stim1-mCherry after thapsigargin; conditions: 10 μM pretreatment 30 min, 1 μM thapsigargin 15 min
T1 construct: expressed in transfected cells; host or cells: HEK293T
Experimental: FIG. 1A, FIG. 1B, FIG. 1C, FIG. 1D, FIG. 1E, FIG. 1F, FIG. 1G, FIG. 1H, FIG. 1I, FIG. 1J, FIG. 1K, FIG. 1L, FIG. 1M, and FIG. 1N show WRG-28 and atovaquone (Av) suppress the activation of DDR2 and calcium release-activated calcium (CRAC) channel. FIG. 1A indicates HEK293T cells were transiently overexpressed with DDR2 and then pretreated with different compounds (10 μM), including WRG-28, Av, donepezil hydrochloride (Dh), terazosin hydrochloride (Th), verapamil and flecainide for 30 minutes. Verapamil and flecainide were used as negative control here. After that, cells were treated with 50 μg/mL type I collagen for 12 hours. Cell lysates were harvested and subjected to Western blot analysis with antibodies against phosphotyrosine antibody (clone 4G10), DDR2, and β-actin. […] CRAC channel activity was evaluated by applying 1 μM thapsigargin (Thap.) in a calcium-free solution to deplete the endoplasmic reticulum calcium store, followed by the reintroduction of 2 mM Ca^2+ in an external solution. The concentration of cytosolic calcium ions increases as calcium flows through the CRAC channel, leading to the second peak in cytosolic calcium waves. […] Further analyses are presented in FIG. 1I and FIG. 1J, where the second peak of each wave and rate of entry were analyzed. […] The Orai1 and Stim1 puncta in HEK293T cells overexpressed with CFP-Orai1/Stim1-mCherry were assessed. […]

[3] = system: rat hepatic stellate cells (HSC-T6); assay: TGF-β1-induced activation of rat hepatic stellate cells (Western blot); conditions: HSC-T6, 10 μM co-treatment, 24 hours
Experimental: as §1, with “Each bar within the figure represents the mean value derived from 77 to 91 cells for HCF, 31 to 49 cells for MRC5, and 43 to 94 cells for HSC-T6. In all the graphs, *, **, and *** denote p-values of <0.05, 0.01, and 0.001, respectively.” left out
Cell lysates were harvested in RIPA buffer (150 mM NaCl, 1 mM EGTA, 50 mM Tris pH 7.4, 10% glycerol, 1% Triton X-100, 1% sodium deoxycholate, 0.1% SDS, and protease inhibitor cocktail) and collected from culture dish with cell scrapers. […] The protein expression levels were assessed by specific primary antibodies, including antibodies against phosphotyrosine (clone 4G10; Millipore), DDR2 (R&D), α-SMA (Sigma), Collagen 1a1 (Boster), E-cadherin (BD Biosciences), SGLT2 (Proteintech), NHE1 (Novus) and β-actin (Clone C4, Millipore), followed by incubating with secondary antibodies conjugated with HRP and detected by ECL kit (Thermo Scientific). […]

T1 sequence (Q96D31 whole entry): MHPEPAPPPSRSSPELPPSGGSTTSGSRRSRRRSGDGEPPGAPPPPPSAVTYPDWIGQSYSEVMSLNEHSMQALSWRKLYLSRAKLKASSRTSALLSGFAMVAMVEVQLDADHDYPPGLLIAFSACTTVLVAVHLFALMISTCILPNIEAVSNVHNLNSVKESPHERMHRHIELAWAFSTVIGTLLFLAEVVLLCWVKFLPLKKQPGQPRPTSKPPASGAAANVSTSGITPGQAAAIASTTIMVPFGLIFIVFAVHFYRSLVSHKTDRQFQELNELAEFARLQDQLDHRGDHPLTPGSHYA

Structure (SMILES) | TGF-β1-increased cell spreading area [1] | expression of fibronectin and α-SMA induced by TGF-β1 [1] | formation of Stim1 or Orai1 puncta induced by store depletion [2] | upregulation of α-SMA induced by TGF-β1 [3]
CCNS(=O)(=O)c1ccc(COc2ccc3nc4ccc(=O)cc-4oc3c2)cc1 [WRG-28] | mitigated | suppressed | unaffected | suppressed
Cc1nnsc1C(=O)Nc1ccc(-n2nc(C(F)(F)F)cc2C(F)(F)F)cc1 [BTP2] | mitigated | suppressed | unaffected | suppressed
